In patent US5856325A, “Benzotriazines, pharmaceutical compositions, and methods of using same” (Boehringer Mannheim GmbH, priority 1992, dated 1999):

Experiments:
[1] = system: collagen-induced arachidonic acid (AA) liberation from human thrombocytes; assay: Inhibition of the collagen-induced arachidonic acid (AA) liberation from human thrombocytes (3H-AA); assay type: cell-based
Method: b) Inhibition of the collagen-induced arachidonic acid
(AA) liberation from human thrombocytes
As further indicator of a PLA2 inhibition, there is valid an inhibition of the AA liberation from thrombocytes. For this purpose, the thrombocytes are equilibrated with ^3 H-AA. This added radioactive arachidonic acid incorporates into membrane phospholipids. Subsequently, the thrombocytary PLA2 is activated via the collagen receptor and ^3 H-AA thus again liberated from the membrane phospholipids into the medium where it can be measured.

[2] = molecular target: T1, human recombinant type II PLA2 (synovial PLA2) (Homo sapiens, UniProt P14555); assay: Inhibition of the human recombinant type II PLA2 (synovial PLA2), in vitro; assay type: biochemical
T1 sequence (P14555 21-144): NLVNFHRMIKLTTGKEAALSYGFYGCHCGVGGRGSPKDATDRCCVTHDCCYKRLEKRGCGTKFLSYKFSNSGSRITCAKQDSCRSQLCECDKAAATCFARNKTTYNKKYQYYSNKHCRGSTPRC
Description: a) Inhibition of the human recombinant type II PLA2) (=synovial PLA2)
As typical respresentative of A PLA2, there was selected for the testing the synovial PLA2 (dissertation of Rainer Muller, 1993; University of Regensburg).
As representative of the compounds I or Ia, respectively, there was investigated in more detail the compound from Example 1. In the following Table, there is given dosage-dependent the percentage in vitro inhibition of PLA2.

Nc1nc2ccccc2[n+]([O-])n1 [Example 1, 1,2,4-Benzotriazine-3-amine 1-oxide]
inhibition at 10 µg/mL ([1]; 10 μg/ml, collagen-induced, human thrombocytes): 29% | inhibition at 100 µg/mL ([1]; 100 μg/ml, collagen-induced, human thrombocytes): 91% | inhibition of the collagen-induced AA liberation, maximum ([1]; dosage-dependent): up to 91% | inhibition at 1 µg/mL ([2]; 1 μg/ml): 43% | inhibition at 10 µg/mL ([2]; 10 μg/ml): 60% | inhibition at 100 µg/mL ([2]; 100 μg/ml): 99%
